Values joined by “and” are separate entries in the source; they are usually repeats but may differ in a detail not shown here. Identical values can stand only once. Toxic doses and inconclusive results are not listed. No stated cut-off is given here; in the data, active means T/C of 150% or more; inactive means T/C below 125%.
Tested on: L1210 leukemia ip in BDF1 mice, survival T/C
Experiment: NCI In Vivo Anticancer Drug Screen. Data for tumor model L1210 Leukemia (intraperitoneal) in B6D2F1 (BDF1) mice
Settings: endpoint: mean survival time, higher = longer survival
Summary of the method: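 Tumor was transplanted into mice, which were then dosed with test compound or vehicle alone. Survival was recorded for each group, and the treated figure was expressed relative to the control figure.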

[1] = dose: 100.0 mg/kg/injection, schedule: Q01DX009 (ip), vehicle: Klucel (hydroxypropylcellulose) (HPC)
[2] = dose: 100.0 mg/kg/injection, schedule: Q04DX003 (ip), vehicle: Klucel (hydroxypropylcellulose) (HPC)
[3] = dose: 200.0 mg/kg/injection, schedule: Q01DX009 (ip), vehicle: Klucel (hydroxypropylcellulose) (HPC)
[4] = dose: 200.0 mg/kg/injection, schedule: Q04DX003 (ip), vehicle: Klucel (hydroxypropylcellulose) (HPC)
[5] = dose: 400.0 mg/kg/injection, schedule: Q04DX003 (ip), vehicle: Klucel (hydroxypropylcellulose) (HPC)
[6] = dose: 100.0 mg/kg/injection, schedule: Q04DX003 (ip), vehicle: saline
[7] = dose: 100.0 mg/kg/injection, schedule: Q04DX002 (ip), vehicle: Klucel (hydroxypropylcellulose) (HPC)
[8] = dose: 200.0 mg/kg/injection, schedule: Q04DX002 (ip), vehicle: Klucel (hydroxypropylcellulose) (HPC)
[9] = dose: 400.0 mg/kg/injection, schedule: Q04DX002 (ip), vehicle: Klucel (hydroxypropylcellulose) (HPC)
[10] = dose: 100.0 mg/kg/injection, schedule: Q01DX001 (ip), vehicle: saline
[11] = dose: 100.0 mg/kg/injection, schedule: Q01DX009 (ip), vehicle: saline
[12] = dose: 200.0 mg/kg/injection, schedule: Q01DX001 (ip), vehicle: saline
[13] = dose: 200.0 mg/kg/injection, schedule: Q01DX009 (ip), vehicle: saline
[14] = dose: 400.0 mg/kg/injection, schedule: Q01DX001 (ip), vehicle: saline
[15] = dose: 400.0 mg/kg/injection, schedule: Q01DX009 (ip), vehicle: saline
[16] = dose: 100.0 mg/kg/injection, schedule: Q04DX003 (ip), vehicle: saline with Tween-80
[17] = dose: 200.0 mg/kg/injection, schedule: Q04DX003 (ip), vehicle: saline with Tween-80
[18] = dose: 400.0 mg/kg/injection, schedule: Q04DX003 (ip), vehicle: saline with Tween-80
[19] = dose: 200.0 mg/kg/injection, schedule: Q01DX009 (ip), vehicle: saline with Tween-80
[20] = dose: 400.0 mg/kg/injection, schedule: Q01DX009 (ip), vehicle: saline with Tween-80

Measured: T/C

COc1cc(N(C)C)c(OC)cc1C=O
inactive: [1] 103 % of control | [2] 97 % of control | [3] 105 % of control | [4] 95 % of control | [5] 95 % of control

CC(=O)Nc1ccc(S(=O)(=O)c2ccc(NC(C)=O)cc2)cc1
inactive: dose: 50.0 mg/kg/injection, schedule: Q01DX009 (ip), vehicle: Klucel (hydroxypropylcellulose) (HPC) 103 % of control | [1] 93 % of control | [3] 97 % of control

[NH-]CC(=O)[N-]CC(=O)O.[NH-]CC(=O)[N-]CC(=O)O.[Ni]
inactive: dose: 25.0 mg/kg/injection, schedule: Q01DX009 (ip), vehicle: saline 86 % of control | dose: 25.0 mg/kg/injection, schedule: Q04DX003 (ip), vehicle: saline 107 % of control | dose: 50.0 mg/kg/injection, schedule: Q04DX003 (ip), vehicle: saline 116 % of control | [6] 98 % of control and 92 % of control

CCN(CCO)C(=O)C1C(c2ccccc2)C1c1ccccc1 (configuration not stated)
inactive: [7] 97 % of control | [8] 100 % of control | [9] 90 % of control

CC(C)(C#N)NC(N)=O
inactive: [10] 101 % of control | [11] 103 % of control | [6] 107 % of control | [12] 102 % of control | [13] 102 % of control | dose: 200.0 mg/kg/injection, schedule: Q04DX003 (ip), vehicle: saline 104 % of control | [14] 98 % of control | [15] 97 % of control | dose: 400.0 mg/kg/injection, schedule: Q04DX003 (ip), vehicle: saline 102 % of control

CC(C)(C)NC(=O)Cc1ccccc1
inactive: dose: 50.0 mg/kg/injection, schedule: Q04DX003 (ip), vehicle: saline with Tween-80 97 % of control | [16] 98 % of control | [17] 103 % of control

COc1cc(C=Nc2ccccc2C(=O)N/N=C/c2cc(OC)c(OC)c(OC)c2)cc(OC)c1OC
inactive: [2] 97 % of control | [4] 100 % of control | [5] 91 % of control

c1csc(C[N+]23CN4CN(CN(C4)C2)C3)c1
inactive: [11] 92 % of control | [13] 103 % of control | [15] 101 % of control

O=C(O)COc1ccc(Cl)cc1C(=O)O
inactive: [2] 96 % of control | [4] 104 % of control | [5] 101 % of control

CCOCCOCCOC(=O)COCC(=O)OCCOCCOCC
inactive: [10] 96 % of control | [12] 113 % of control | [14] 111 % of control

Cc1cc(C)c([N+](=O)[O-])c(C)c1C(=O)C(C)C
inactive: dose: 100.0 mg/kg/injection, schedule: Q01DX009 (ip), vehicle: other 105 % of control | [2] 96 % of control | dose: 200.0 mg/kg/injection, schedule: Q01DX009 (ip), vehicle: other 101 % of control | [4] 100 % of control | dose: 400.0 mg/kg/injection, schedule: Q01DX009 (ip), vehicle: other 95 % of control | [5] 94 % of control

O=[N+]([O-])c1cc(Cl)c(Cl)cc1N1CCCC1
inactive: [2] 93 % of control | [4] 88 % of control | [5] 101 % of control

O=C(/C=C/c1ccc2c(c1)OCO2)c1ccc([N+](=O)[O-])cc1
inactive: dose: 100.0 mg/kg/injection, schedule: Q04DX003 (ip), vehicle: alcohol 93 % of control | dose: 200.0 mg/kg/injection, schedule: Q04DX003 (ip), vehicle: alcohol 90 % of control | dose: 400.0 mg/kg/injection, schedule: Q04DX003 (ip), vehicle: alcohol 93 % of control

COc1ccc(CC2=NNC(Cc3ccc(OC)c(OC)c3)=NN2)cc1OC
inactive: [16] 91 % of control | [17] 91 % of control | [18] 93 % of control

COC(COS(=O)(=O)c1ccc(Br)cc1)(c1ccccc1)c1ccccc1
inactive: dose: 50.0 mg/kg/injection, schedule: Q01DX009 (ip), vehicle: saline with Tween-80 87 % of control

N#CS
inactive: dose: 50.0 mg/kg/injection, schedule: Q01DX009 (ip), vehicle: saline 102 % of control | [11] 95 % of control | [13] 98 % of control

COc1cccc(OC)c1OC(=O)Nc1cccc(SC)c1
inactive: [19] 91 % of control | [20] 95 % of control

COC(=O)NS(=O)(=O)c1ccn(C)c1
inactive: dose: 100.0 mg/kg/injection, schedule: Q01DX001 (ip), vehicle: Klucel (hydroxypropylcellulose) (HPC) 97 % of control | [2] 100 % of control | dose: 200.0 mg/kg/injection, schedule: Q01DX001 (ip), vehicle: Klucel (hydroxypropylcellulose) (HPC) 98 % of control | [4] 100 % of control | dose: 400.0 mg/kg/injection, schedule: Q01DX001 (ip), vehicle: Klucel (hydroxypropylcellulose) (HPC) 104 % of control | [5] 100 % of control

COc1cc2c(c(OC)c1OC)-c1ccc(OC)c(=O)cc1C(NC(=S)Nc1ccccc1)CC2 (configuration not stated)
inactive: dose: 62.5 mg/kg/injection, schedule: Q01DX009 (ip), vehicle: other 104 % of control | dose: 125.0 mg/kg/injection, schedule: Q01DX009 (ip), vehicle: other 98 % of control | dose: 250.0 mg/kg/injection, schedule: Q01DX009 (ip), vehicle: other 103 % of control

CC(=O)[O][Hg][c]1c(C)c(C)cc(C)c1C
inactive: dose: 6.25 mg/kg/injection, schedule: Q04DX003 (ip), vehicle: saline with Tween-80 93 % of control | dose: 12.5 mg/kg/injection, schedule: Q04DX003 (ip), vehicle: saline with Tween-80 87 % of control | dose: 25.0 mg/kg/injection, schedule: Q04DX003 (ip), vehicle: saline with Tween-80 95 % of control

Cc1ccccc1CN(C)N=O
inactive: [10] 101 % of control | [12] 94 % of control | [14] 91 % of control

c1cc2c3c(c1)[I+]c1cccc(c1-3)[I+]2
inactive: dose: 50.0 mg/kg/injection, schedule: Q01DX001 (ip), vehicle: saline 112 % of control | [10] 116 % of control

N#Cc1ccccc1C(Cl)(Cl)Cl
inactive: [7] 100 % of control | [8] 106 % of control | [9] 100 % of control

COC(=O)/C(C#N)=C/c1c[nH]c2ccccc12
inactive: dose: 100.0 mg/kg/injection, schedule: Q01DX009 (ip), vehicle: saline with Tween-80 101 % of control | [16] 101 % of control | [19] 95 % of control | [17] 93 % of control | [20] 100 % of control | [18] 98 % of control

CCCC1(c2ccsc2)NC(=O)NC1=O (configuration not stated)
inactive: dose: 100.0 mg/kg/injection, schedule: Q01DX001 (ip), vehicle: carboxymethylcellulose (CMC) 98 % of control | dose: 200.0 mg/kg/injection, schedule: Q01DX001 (ip), vehicle: carboxymethylcellulose (CMC) 98 % of control | dose: 400.0 mg/kg/injection, schedule: Q01DX001 (ip), vehicle: carboxymethylcellulose (CMC) 90 % of control

COC(=O)CCCC(=O)c1[nH]c2ccccc2c1CC(=O)NCc1ccccc1
inactive: dose: 75.0 mg/kg/injection, schedule: Q01DX001 (ip), vehicle: alcohol 97 % of control | dose: 150.0 mg/kg/injection, schedule: Q01DX001 (ip), vehicle: alcohol 93 % of control | dose: 300.0 mg/kg/injection, schedule: Q01DX001 (ip), vehicle: alcohol 92 % of control

— PubChem BioAssay AID248 (DTP/NCI, 2004)
